From paper PMC11336009 (GeroScience, 2024)
Entries after “also recorded” stand apart in the source; their conditions may differ. Read-outs that look alike come from different tables or passages of the source.

Assays:
GLP-1 and GIP = test: Active GLP-1 and GIP measurement in rat plasma and CSF (ELISA); assay type: in vivo; conditions: 30 mg/kg daily p.o. day 7 to 45, day 45
Protocol: Plasma was obtained from whole blood samples at the time of euthanasia (centrifugation 10,000xG 60 s at 4 °C), and CSF was obtained from the cisterna magna. Samples were evaluated by ELISA using kits from IBL (Immuno-Biological Laboratories, Inc.) or from Millipore, following their protocols.

[1] = test system: TNF-α, IL-6, Iba-1 and GFAP; test: Neuroinflammatory measures in brain (TNF-α, IL-6 ELISA; Iba-1, GFAP Western blot); assay type: in vivo, rat; conditions: 30 mg/kg daily p.o. day 7 to 45; day 45
Protocol: To quantify rat brain cytokine levels, brain tissues were homogenized in TPER (Tissue Protein Extraction Reagent) (ThermoFisher Scientific) using a Biomasher Homogenizer. Inhibitors of phosphatase and protease were added into the TPER to prevent protein degradation. Tissues were then sonicated for 10 pulses and centrifuged at 10,000 g for 10 min at 4 °C. The supernatant was used to measure brain cytokine levels using rat TNF-α ELISA kits from e-Bioscience (San Diego, CA, USA) and rat IL-6 ELISA kits from Biolegend (San Diego, CA, USA). The final results were normalized to protein content, as measured by BCA (bicinchoninic acid) assay. Brain tissue Iba-1 and GFAP levels were quantified by Western blot (Iba-1 and GFAP antibodies Santa Cruz Biotechnology, Inc.) and used in 1:100 dilution).

[2] = Rat pharmacokinetic study: plasma and brain levels after single oral dose; assay type: in vivo; conditions: male, Sprague-Dawley; for concentration at 105 min: po, 10 mg/kg, mean ± SEM
Protocol: A blood sample was obtained and the plasma was separated (10,000 G, 60 s, 4 °C) and frozen to -80 °C. The vasculature was immediately cleared with physiological saline, and a section through the right cerebral hemisphere was obtained and flash frozen to -80 °C.

[3] = test system: 6-OHDA unilateral medial forebrain bundle lesioned rat; test: Dopamine measurements by HPLC in striatum and SNc of 6-OHDA lesioned rats; assay type: in vivo; conditions: delayed treatment, low dose 10 mg/kg daily p.o. from day 7
Protocol: Gliptin treatment was initiated either prior to or after 6-OHDA lesioning (early and delayed treatment, respectively) as follows. […] An estimated dose for a 250-g rat under this treatment was 10 mg/kg/day. […] An estimated, clinically relevant, dose for a 250 g rat under this treatment was thus 30 mg/kg/day. Specifically for drug admixture into diet, drug was solubilized in 100% ETOH that was then added to the 16.2 g of food chow. Thereafter, the ETOH was evaporated off. […] Animals were weighed twice weekly and the amount of drug added to the chow was modified accordingly to maintain the daily required dose.
Brain samples were collected at 45 days after 6-OHDA lesioning. Striatal and SNc tissues were weighed and stored at − 80 °C until extraction. The tissues obtained from each animal were homogenized in 0.1 M perchloric acid and centrifuged at 13,000 g for 15 min. DA levels were measured by HPLC with electrochemical detection [47]. The analytical column was a Symmetry C18 3.5 µm (4.6 × 150.0 mm) from Waters (Milford, MA). The mobile phase consisted of 0.01 M sodium dihydrogen phosphate, 0.01 M citric acid, 2 mM sodium EDTA, 1 mM sodium octylsulfate, 10% methanol, pH 3.5 and was used at flow rate of 0.9 ml/min and a temperature of 25 °C. […] DA content was calculated as nmole/g of tissue weight.

[4] = test system: 6-OHDA unilateral medial forebrain bundle lesioned rat; test: Tyrosine hydroxylase (TH) immunoreactivity in striatum and SNc of 6-OHDA lesioned rats; assay type: in vivo
Protocol: treatment was initiated either prior to or after 6-OHDA lesioning (early and delayed treatment, respectively) as follows. (1) Early treatment: […] An estimated dose for a 250-g rat under this treatment was 10 mg/kg/day. (2) Delayed treatment: […] An estimated, clinically relevant, dose for a 250 g rat under this treatment was thus 30 mg/kg/day. Specifically for drug admixture into diet, drug was solubilized in 100% ETOH that was then added to the 16.2 g of food chow. Thereafter, the ETOH was evaporated off. […] Animals were weighed twice weekly and the amount of drug added to the chow was modified accordingly to maintain the daily required dose. […] Specifically, the 10 mg/kg oral daily drug dose in our rat studies is equivalent to the routine human daily oral dose (100 mg in a 65 kg human) of these […] used in T2DM, and the 30 mg/kg rat dose is equivalent to a threefold higher dose that is well-tolerated in humans. Following the exact same protocol described in Yin et al., 2012 [34] and Li et al., 2009 [35], anesthetized rats were injected i.c.v. with PF-00734,200 (15.4 nmole in 20 μL sterile physiological saline (n = 6)) or vehicle (sterile physiological saline, 20 μL (n = 8)) using a 25 μL Hamilton syringe at 10 min prior to 6-OHDA lesioning (Supplemental Fig. 2). The coordinates for the i.c.v. injection were 0.8 mm posterior to bregma, 1.2 mm lateral (Left) to midline, and 3.7 mm ventral to the dural surface. The rate of infusion (4 μL/min) was adjusted by a microprocessor-controlled injector mounted to the stereotaxic frame (UMP4; World Precision Instruments, Sarasota, FL, USA). The needle was slowly removed after 2 min upon completion of the injection. Following the exact same protocol described in Yin et al., 2012 [34] and Harvey et al. 2004 [36], anesthetized rats were subjected to a 6-OHDA unilateral medial forebrain bundle lesion. Briefly, 6-OHDA (2.27 μg/μL × 5 μL in 0.9% NaCl containing 0.2 mg/ml ascorbic acid) was unilaterally injected into the medial forebrain bundle (-4.4 mm AP, 1.2 mm ML relative to bregma and 8.4 mm below skull) over 4 min through a syringe pump (Micro 4, WPI, Sarasota, FL), as approved under National Health Research Institutes, Taiwan, Protocol # 102,068-A; 102,102-A. Following this procedure, all animals were monitored daily for adverse signs of health for 1 week (in line with the approved protocols). BrdU and TH localization was determined by immunohistochemistry. Serial sections of the entire brain were cut at 30 μm thickness by cryostat. One series from every sixth section was stained for TH. To control for staining variability, specimens from all experimental groups were included in every batch and reacted together in a net well tray under the same conditions. Sections were rinsed in 0.1 M phosphate buffer (PB), blocked with 4% bovine serum albumin (BSA) and 0.3% Triton x-100 in 0.1 M PB. Sections were then incubated in a primary antibody solution mouse monoclonal anti-TH diluted in 4% BSA and 0.3% Triton x-100 in 0.1 M PB, concentration 1:100 (Chemicon, Temecula, CA) and polyclonal anti-BrdU (1:500, Millipore, MA, USA) for 17-19 h at 4 °C. Sections were then rinsed in 0.1 M PB and incubated in secondary antibodies for 1 h, followed by incubation for 1 h with avidin-biotin-horseradish peroxidase complex. Thereafter, sections were mounted on slides, and coverslipped. TH and BrdU immunoreactivity was examined under a fluorescent microscope. Sections were incubated without primary antibody as a control and observers were blinded as to treatment groups. TH immunoreactivity and BrdU cell number in striatum were averaged from 3 brain sections with visible anterior commissure in each animal. TH immunoreactivity in SNc was measured every 6th Sect. (30 μm per each section) throughout the extent of midbrain. […] volume was analyzed using Cavalieri's method.

[5] = test system: 6-OHDA unilateral medial forebrain bundle lesioned rat; test: Methamphetamine-induced rotation in unilateral 6-OHDA lesioned rats; assay type: in vivo; conditions: for Meth-induced ipsilateral rotation vs vehicle: early treatment 10 mg/kg daily p.o. from 7 days before lesioning, meth 2.5 mg/kg s.c. on days 20 and 30
high-fat-fed mice = conditions: cited from earlier work
rat rotenone model of PD = conditions: cited from earlier work
[6] = delayed treatment 30 mg/kg daily p.o. from day 7, day 21
[7] = early treatment 10 mg/kg daily p.o.
[8] = early treatment 10 mg/kg daily p.o., normalized to non-lesioned side, day 35
[9] = delayed treatment 30 mg/kg daily p.o. from day 7 to 45, rotation on days 20, 30 and 40

Compound	CSF GIP level vs vehicle (GLP-1 and GIP; CSF)	Plasma GIP level vs vehicle (GLP-1 and GIP)	Plasma GLP-1 level vs vehicle (GLP-1 and GIP)	GFAP level on the lesioned side of brain (striatum) vs vehicle [1]	IL-6 level on the lesioned side of brain (striatum) vs vehicle [1]	Iba1 level on the lesioned side of brain (striatum) vs vehicle [1]	TNF-α level on the lesioned side of brain (striatum) vs vehicle [1]	TH cell density in the lesioned SNc vs vehicle [4, 6]	TH pixel density in the lesioned striatum vs vehicle [4, 6]	TH immunoreactivity in the lesioned side SNc vs vehicle [4, 7]	TH immunoreactivity in the non-lesioned side SNc [4, 7]	TH pixel density in the lesioned striatum vs vehicle [4, 8]	Meth-induced rotation vs vehicle [5, 9]	Meth-induced ipsilateral rotation vs vehicle [5]	also measured
O=C([C@@H]1C[C@H](N2CCN(c3ncccn3)CC2)CN1)N1CCC(F)(F)C1 [PF-00734,200, Gosogliptin]	elevated	elevated	elevated	reduced levels	reduced levels	reduced levels	reduced levels	significantly increased	a trend, but not a statistically significant	significantly increased	did not alter	significantly increased	significantly attenuated	significantly reduced	CSF GLP-1 level vs vehicle (GLP-1 and GIP; CSF): elevated; concentration at 105 min ([2]; brain, rat brain, 105 min after oral 10 mg/kg, read-out: BrFree (brain free concentration)): 195 ± 34.9 nM; concentration at 105 min ([2]; brain, rat brain, 105 min after oral 10 mg/kg, read-out: BrTotal (brain total concentration)): 574 ± 103 nM; Kp at 105 min ([2]; brain/plasma, 105 min after oral 10 mg/kg, read-out: Br/Pl ratio (Total)): 0.62; concentration at 105 min ([2]; plasma, rat plasma, 105 min (predicted Cmax) after oral 10 mg/kg, n = 5 to 6, read-out: PlTotal (plasma total concentration)): 922 ± 206 nM; concentration at 105 min ([2]; plasma, rat plasma, 105 min after oral 10 mg/kg, read-out: PlFree (plasma free concentration)): 830 ± 185 nM; DA levels in SNc or striatum vs vehicle ([3]; 10 mg/kg): not significantly altered; DA levels in SNc or striatum vs vehicle ([3]; listed as PF‐00734,200, 10 mg/kg): did not alter DA level; TH immunohistochemistry in striatum and SNc vs vehicle ([4]; i.c.v. 15.4 nmole 10 min prior to 6-OHDA lesioning): lack of neuroprotection; also recorded: no different from similarly vehicle-treated animals; Meth-induced rotational behavior vs vehicle ([5]; delayed treatment, low dose 10 mg/kg daily p.o. from day 7): did not alter rotational behavior; Meth-induced rotation vs vehicle ([5]; i.c.v. 15.4 nmole 10 min prior to 6-OHDA lesioning, evaluated on day 30): no different from similarly vehicle-treated animals
N[C@@H](CC(=O)N1CCn2c(nnc2C(F)(F)F)C1)Cc1cc(F)c(F)cc1F [Sitagliptin]	elevated	elevated	elevated	reduced levels	reduced levels	reduced levels	reduced levels	significantly increased	significantly increased	significantly increased	did not alter	significantly increased	significantly attenuated	small but significant difference	Hippocampal neurogenesis (high-fat-fed mice): augmented hippocampal neurogenesis; Effects in rat rotenone model of PD (rat rotenone model of PD): mitigated motor deficits, striatal DA loss, SNc dopaminergic neuronal degeneration and neuroinflammation
